From patent US9381186B2, “Substituted chroman derivatives, medicaments and use in therapy” (MEI Pharma, Inc., priority 2004, dated 2016)
Converted amounts (≈) assume the structure as drawn. Read-outs that look alike come from different tables or passages of the source.

Assays:
RK (rabbit kidney) cells = assay: Cytotoxicity (MTT proliferation assay) against rabbit kidney cells; format: cell-based
Description: (§1) The normal cell line NFF (neonatal foreskin fibroblasts) was a gift from Dr. Peter Parsons (Queensland Institute of Medical Research). RK (rabbit kidney) cells were obtained from Miller Whalley (Macquarie University). Both cell lines were cultured in RPMI supplemented with 10% FCS (CSL, Australia), penicillin (100 U/ml), streptomycin ([…]), L-glutamine (2 mM) and sodium bicarbonate (1.2 g/L), and cultured at 37° C. in a humidified atmosphere of 5% CO2
(§2) IC50 values were determined for each cell line. Cells were seeded in 96-well plates at an appropriate cell density as determined from growth kinetics analysis and cultured for 5 days in the absence and presence of the test compounds. Cell proliferation was assessed after the addition of 20 μl of 3-4,5 dimethylthiazol-2,5-diphenyl tetrazolium bromide (MTT, 2.5 mg/ml in PBS, Sigma) for 3-4 hrs at 37° C. according to manufacturer's instructions. IC50 values were calculated from semi-log plots of % of control proliferation on the y-axis against log dose on the x-axis.

[1] = system: NFF (neonatal foreskin fibroblasts); assay: Cytotoxicity (MTT proliferation assay) against neonatal foreskin fibroblasts; format: cell-based, Human; conditions: Homo sapiens, Fibroblast
Description: as §1, §2

CP70 = assay: MTT proliferation assay, ovarian CP70; format: cell-based
PC3 = assay: MTT proliferation assay, prostate PC3; format: cell-based; conditions: Homo sapiens, PC-3
Description: (§3) An cultures were supplemented with 10% FCS (CSL, Australia), penicillin (100 U/ml), streptomycin ([…]), L-glutamine (2 mM) and sodium bicarbonate (1.2 g/L), and cultured at 37° C. in a humidified atmosphere of 5% CO2. All cell lines were purchased from ATCC (Maryland, USA) except where noted.
as §2

MDA-MB-468 = assay: MTT proliferation assay, breast MDA-MB-468; format: cell-based; conditions: Homo sapiens
HTB-138 = assay: MTT proliferation assay, glioma HTB-138; format: cell-based
Description: as §3, §2

HPAC = assay: MTT proliferation assay, pancreatic HPAC; format: cell-based; conditions: Homo sapiens, Table 2.2
NCI-H23 = assay: MTT proliferation assay, lung NCI-H23; format: cell-based; conditions: Homo sapiens; Lung NCI-H23, Table 2.1; read-out: cytoxicity (IC50)
Description: as §3, §2

HT-29 = assay: MTT proliferation assay, colorectal HT-29; format: cell-based; conditions: for IC50: Homo sapiens
Description: as §3, §2

MM200 = assay: MTT proliferation assay, melanoma MM200; format: cell-based
CCRF-CEM = assay: MTT proliferation assay, leukaemia (ALL) CCRF-CEM; format: cell-based; conditions: Homo sapiens, Table 2.2
Description: as §3, §2

NCI-H460 = assay: MTT proliferation assay, NSC lung NCI-H460; format: cell-based; conditions: Homo sapiens; NSC Lung NCI-H460, Table 2.2
Description: as §3, §2

[2] = Oral pharmacokinetics in female BALB/c mice; format: in vivo, mouse
Description: Compound No. 1 labelled above was prepared as homogenous suspensions in 1% CMC (m:v, water). The formulation was delivered orally by gavage to female BALB/c mice at a dosage of 50 mg/kg. Three animals were allocated to each timepoint (15 min, 30 min, 1 hr, 4 hr and 24 hr). At each respective timepoint, animals were euthanised by cervical dislocation and blood collected. The concentration of free compound was analysed by mass spectroscopy.

[3] = system: murine macrophages (RAW 264.7) stimulated with LPS; assay: Eicosanoid synthesis in LPS-stimulated RAW 264.7 macrophages; format: cell-based, mouse; conditions: test compound 10 μM, LPS 50 ng/ml, 16 hrs; negative = inhibition
Description: The mouse macrophage cell line RAW 264.7 was cultured in DMEM supplemented with foetal calf serum (FCS), 2 mM glutamine and 50 U/ml penicillin/streptomycin. Subconfluent cells were detached from the flask by gentle scraping and 24-well plates seeded at 5×10^5 cells per well and allowed to adhere for 1 hr. Cells were then treated either test compound at a concentration of 10 μM (in 0.025% DMSO) or vehicle alone, and incubated for 1 hr. LPS 50 ng/ml (LPS—Sigma-Aldrich) was then added. After incubation for 16 hrs, culture media was collected and stored at −80° C. for ecosanoid measurements using enzyme immunometric assays (PGE2 and TXB2—Cayman Chemical).

[4] = Preliminary formulation study, solubility in 20% HPBCD; format: physicochemical; conditions: aqueous with cosolvent or surfactant or cyclodextrin, preliminary formulation studies
cancer cell lines = assay: Proliferation assays, panel of cancer cell lines; format: cell-based; conditions: CP70, PC3, MDA-MB-468, HTB-138 and lung cancer cell lines

COc1ccc(C2c3ccc(O)c(C)c3OCC2c2ccc(O)cc2)cc1 (stereo not shown) [Compound 1, 3-(4-hydroxyphenyl)-4-(4-methoxyphenyl)-8-methyl-3,4-dihydro-2H-chromen-7-ol]
IC50 (RK (rabbit kidney) cells; Oryctolagus cuniculus, rabbit kidney cells): > 60000 nM | IC50 (RK (rabbit kidney) cells; Rabbit Kidney cells): > 60000 nM | IC50 ([1]; Neonatal Foreskin Fibroblasts (Human, NFF), read-out: IC50): ~2000 nM | IC50 ([1]; non-transformed neonatal foreskin fibroblasts, read-out: IC50): 2000 nM | IC50 ([1]; text says rabbit kidney cells, values are those of the NFF line of Table 1, read-out: degree of toxicity (IC50)): 2000 nM | IC50 (CP70; Ovarian CCP70, Table 2.1, read-out: cytoxicity (IC50)): 1700 nM | IC50 (CP70; Ovarian CP70, Table 2.2, read-out: IC50): 1900 ± 400 nM | IC50 (PC3; Prostate PC3, Table 2.1, read-out: cytoxicity (IC50)): 1700 ± 500 nM | IC50 (PC3; Prostate PC3, Table 2.2, read-out: IC50): 1600 ± 800 nM | IC50 (MDA-MB-468; Breast MDA-MB-468, Table 2.1, read-out: cytoxicity (IC50)): 600 ± 10 nM | IC50 (MDA-MB-468; Breast MDA-MB-468, Table 2.2, read-out: IC50): 1000 ± 600 nM | IC50 (HTB-138; Glioma HTB-138, Table 2.1, read-out: cytoxicity (IC50)): 1100 nM | IC50 (HTB-138; Glioma HTB-138, Table 2.2, read-out: IC50): 1160 nM | IC50 (HPAC): 51700 ± 8000 nM | IC50 (NCI-H23): 1900 ± 100 nM | IC50 (HT-29; Colorectal HT-29, Table 2.1, read-out: cytoxicity (IC50)): 17400 nM | IC50 (HT-29; Colorectal HT-29, Table 2.2, read-out: IC50): 15700 ± 2400 nM | activity in words (HT-29; colorectal cell line HT-29): moderately active | IC50 (MM200; Melanoma MM200, Table 2.1, read-out: cytoxicity (IC50)): 1000 ± 10 nM | IC50 (MM200; Melanoma MM200, Table 2.2, read-out: IC50): 780 ± 230 nM | IC50 (CCRF-CEM): 1600 ± 1200 nM | IC50 (NCI-H460): 1200 ± 450 nM | concentration at 1 h ([2]; female, BALB/c, mouse, faeces, po, 50 mg/kg, oral 50 mg/kg, Time 1 (head prints days), read-out: Faeces Free): 1060 ± 913 µM | concentration at 4 h ([2]; female, BALB/c, mouse, faeces, po, 50 mg/kg, oral 50 mg/kg, Time 4 (head prints days), read-out: Faeces Free): 1790 ± 625 µM | concentration at 24 h ([2]; female, BALB/c, mouse, faeces, po, 50 mg/kg, oral 50 mg/kg, Time 24 (head prints days), read-out: Faeces Free): 800 ± 670 µM | half-life ([2]; female, BALB/c, mouse, serum, 50 mg/kg, oral, sera, read-out: half life): ~30 min | concentration at 0.25 h ([2]; female, BALB/c, mouse, serum, po, 50 mg/kg, oral 50 mg/kg, Time 0.25 (head prints days), read-out: Serum Free): 27.3 ± 23 µM | concentration at 0.5 h ([2]; female, BALB/c, mouse, serum, po, 50 mg/kg, oral 50 mg/kg, Time 0.5 (head prints days), read-out: Serum Free): 8.2 ± 6.5 µM | concentration at 1 h ([2]; female, BALB/c, mouse, serum, po, 50 mg/kg, oral 50 mg/kg, Time 1 (head prints days), read-out: Serum Free): 2.4 ± 1.6 µM | concentration at 4 h ([2]; female, BALB/c, mouse, serum, po, 50 mg/kg, oral 50 mg/kg, Time 4 (head prints days), read-out: Serum Free): 0.3 ± 0.02 µM | concentration at 24 h ([2]; female, BALB/c, mouse, serum, po, 50 mg/kg, oral 50 mg/kg, Time 24 (head prints days), read-out: Serum Free): 0.05 ± 0.02 µM | concentration at 0.25 h ([2]; female, BALB/c, mouse, serum, po, 50 mg/kg, oral, Time 0.25, Table 4, read-out: Free concentration, comparative oral pharmacokinetic data): 27.3 ± 23 µM | concentration at 0.5 h ([2]; female, BALB/c, mouse, serum, po, 50 mg/kg, oral, Time 0.5, Table 4, read-out: Free concentration, comparative oral pharmacokinetic data): 8.2 ± 6.5 µM | concentration at 1 h ([2]; female, BALB/c, mouse, serum, po, 50 mg/kg, oral, Time 1, Table 4, read-out: Free concentration, comparative oral pharmacokinetic data): 2.4 ± 1.6 µM | concentration at 4 h ([2]; female, BALB/c, mouse, serum, po, 50 mg/kg, oral, Time 4, Table 4, read-out: Free concentration, comparative oral pharmacokinetic data): 0.33 ± 0.02 µM | concentration at 24 h ([2]; female, BALB/c, mouse, serum, po, 50 mg/kg, oral, Time 24, Table 4, read-out: Free concentration, comparative oral pharmacokinetic data): 0.05 ± 0.02 µM | concentration at 30 min ([2]; female, BALB/c, mouse, serum, po, 50 mg/kg, oral, after 30 min, read-out: free concentration in sera): 8.2 µM | concentration at 1 hr ([2]; female, BALB/c, mouse, serum, po, 50 mg/kg, oral, after 1 hr, read-out: free concentration in sera): 2.4 µM | concentration at 0.25 h ([2]; female, BALB/c, mouse, urine, po, 50 mg/kg, oral 50 mg/kg, Time 0.25 (head prints days), read-out: Urine Free): 17.1 ± 7.2 µM | concentration at 0.5 h ([2]; female, BALB/c, mouse, urine, po, 50 mg/kg, oral 50 mg/kg, Time 0.5 (head prints days), read-out: Urine Free): 22.1 ± 1.5 µM | concentration at 1 h ([2]; female, BALB/c, mouse, urine, po, 50 mg/kg, oral 50 mg/kg, Time 1 (head prints days), read-out: Urine Free): 26.3 ± 2.2 µM | concentration at 4 h ([2]; female, BALB/c, mouse, urine, po, 50 mg/kg, oral 50 mg/kg, Time 4 (head prints days), read-out: Urine Free): 1.1 ± 0.1 µM | concentration at 24 h ([2]; female, BALB/c, mouse, urine, po, 50 mg/kg, oral 50 mg/kg, Time 24 (head prints days), read-out: Urine Free): 0.1 ± 0.1 µM | share of compound recovered from faeces present in free form ([2]; oral): ~100% | Cmax of free compound in sera ([2]; oral, 15 minutes post administration): 27.3 µM | free concentration relative to phenoxodiol ([2]; oral, after 15 and 30 min): 10-20 fold | concentration relative to phenoxodiol ([2]; oral, after 1 hr): Approximately 2 fold | share present as the free entity in urine ([2]; oral, at any time-point): ≤ 2% | Percentage change in PGE2 synthesis compared with vehicle [3]: −53.8% | Percentage change in TXB2 synthesis compared with vehicle [3]: −15.9% | solubility [4]: 11.2 mg/mL (≈ 30.9 mM) | activity relative to phenoxodiol (IC50 comparison) (cancer cell lines): 2-10 fold
